In patent publication US20240360122A1, “POLYMORPHIC FORMS AND SALTS OF A GLP-1R AGONIST” (Terns (Suzhou) Biotechnology Co., Ltd., priority 2023, published 2024):
Structures can show the parent of a compound that is named as a salt.

How the values were obtained:
Assay type in all cases: physicochemical
[1] = Solid state stability at 25° C./60% RH and 40° C./75% RH for 1 week; conditions: for HPLC peak Area, RRT 1.00: main peak
Experimental: Each sample was added into a glass vial, sealed by parafilm with several holes, and kept under tested conditions. After one week, samples were taken for XRPD and HPLC purity test.

[2] = Hygroscopicity by DVS at 25° C.
Experimental: DVS was measured via a SMS (Surface Measurement Systems) DVS Intrinsic. The relative humidity at 25° C. were calibrated against deliquescence point of LiCl, Mg(NO3)2 and KCl.

[3] = Kinetic solubility in water and bio-relevant media (SGF, FaSSIF, FeSSIF) at 37° C.; conditions: for S: Solubility / FC: Form change: 37° C.; for S: Solubility: calculated by freeform; for FC: Form change: residual solids by XRPD
Experimental: Add 4 mL of medium (H2O, SGF, FaSSIF and FeSSIF). • Rolled at 37° C. (˜25 rpm). Sampling at 1, 2, 4 and 24 hrs. • At each time-point, sampled 0.8 mL of solution or suspension into a centrifuge tube prior to centrifugation (12000 rpm, 37° C., 5 min) and filtration through 0.45 μm PTFE membrane. • Tested pH and concentration for the filtrate. Analyze residual solids by XRPD.
0.1 g of NaCl and 0.05 g of Triton X-100 were weighed into a 50-mL volumetric flask. Purified water was added to dissolve the solid. 67.5 μL HCl (38%, 12M) was added after the solid was dissolved completely. pH was then adjusted to 1.8 using HCl (1 M) or NaOH (1 M). Purified water was added to the volume.
0.17 g of anhydrous NaH2PO4, 0.021 g of NaOH and 0.31 g of NaCl were weighed into a 50-mL volumetric flask. ˜48 mL purified water was added to dissolve the solid. pH was adjusted to 6.5 using 1M HCl or 1M NaOH. Purified water was then added to the volume. 0.11 g of SIF powder was added into the volumetric flask.
0.41 mL of acetic acid, 0.20 g of NaOH and 0.59 g of NaCl were weighed into a 50-mL volumetric flask. ˜48 mL purified water was added to dissolve the solid. pH was adjusted to 5.0 using 1M HCl or 1M NaOH. Purified water was then added to the volume. 0.56 g of SIF powder was added into the volumetric flask.

Compound: N#Cc1ccc(COc2cccc(C3CCN(Cc4nc5ccc(C(=O)O)cc5n4Cc4cncs4)CC3)n2)c(F)c1 [Potassium salt Type A]
- HPLC peak Area, RRT 0.70 ([1]; 25° C./60% RH, 1 week): 0.06%
- HPLC peak Area, RRT 0.73 ([1]; 25° C./60% RH, 1 week): 0.15%
- HPLC peak Area, RRT 0.83 ([1]; 25° C./60% RH, 1 week): 1.80%
- HPLC peak Area, RRT 0.90 ([1]; 25° C./60% RH, 1 week): 0.09%
- HPLC peak Area, RRT 0.99 ([1]; 25° C./60% RH, 1 week): 0.06%
- HPLC peak Area, RRT 1.05 ([1]; 25° C./60% RH, 1 week): 0.27%
- HPLC peak Area, RRT 1.10 ([1]; 25° C./60% RH, 1 week): 0.67%
- HPLC peak Area, RRT 1.11 ([1]; 25° C./60% RH, 1 week): 0.05%
- HPLC peak Area, RRT 1.12 ([1]; 25° C./60% RH, 1 week): 0.06%
- HPLC peak Area, RRT 1.15 ([1]; 25° C./60% RH, 1 week): 0.21%
- HPLC peak Area, RRT 1.34 ([1]; 25° C./60% RH, 1 week): 0.10%
- HPLC peak Area, RRT 1.00 ([1]; 25° C./60% RH, 1 week): 96.47%
- Form change ([1]; 25° C./60% RH/Open/1 week): No
- Purity ([1]; 25° C./60% RH/Open/1 week): 96.47 Area %
- solid-state stability: form change and purity decrease ([1]; 25° C./60% RH/open and 40° C./75% RH/open, 1 week): no form change or significant purity decrease
- HPLC peak Area, RRT 0.70 ([1]; 40° C./75% RH, 1 week): 0.05%
- HPLC peak Area, RRT 0.73 ([1]; 40° C./75% RH, 1 week): 0.14%
- HPLC peak Area, RRT 0.83 ([1]; 40° C./75% RH, 1 week): 1.78%
- HPLC peak Area, RRT 0.90 ([1]; 40° C./75% RH, 1 week): 0.09%
- HPLC peak Area, RRT 0.99 ([1]; 40° C./75% RH, 1 week): <0.05%
- HPLC peak Area, RRT 1.05 ([1]; 40° C./75% RH, 1 week): 0.28%
- HPLC peak Area, RRT 1.10 ([1]; 40° C./75% RH, 1 week): 0.66%
- HPLC peak Area, RRT 1.11 ([1]; 40° C./75% RH, 1 week): 0.06%
- HPLC peak Area, RRT 1.12 ([1]; 40° C./75% RH, 1 week): 0.06%
- HPLC peak Area, RRT 1.15 ([1]; 40° C./75% RH, 1 week): 0.22%
- HPLC peak Area, RRT 1.34 ([1]; 40° C./75% RH, 1 week): 0.07%
- HPLC peak Area, RRT 1.00 ([1]; 40° C./75% RH, 1 week): 96.58%
- Form change ([1]; 40° C./75% RH/Open/1 week): No
- Purity ([1]; 40° C./75% RH/Open/1 week): 96.58 Area %
- HPLC peak Area, RRT 0.70 ([1]; Initial): 0.05%
- HPLC peak Area, RRT 0.73 ([1]; Initial): 0.16%
- HPLC peak Area, RRT 0.83 ([1]; Initial): 1.84%
- HPLC peak Area, RRT 0.90 ([1]; Initial): 0.09%
- HPLC peak Area, RRT 0.99 ([1]; Initial): 0.05%
- HPLC peak Area, RRT 1.05 ([1]; Initial): 0.27%
- HPLC peak Area, RRT 1.10 ([1]; Initial): 0.70%
- HPLC peak Area, RRT 1.11 ([1]; Initial): 0.05%
- HPLC peak Area, RRT 1.12 ([1]; Initial): 0.06%
- HPLC peak Area, RRT 1.15 ([1]; Initial): 0.22%
- HPLC peak Area, RRT 1.34 ([1]; Initial): 0.10%
- Purity ([1]; Initial): 96.41 Area %
- HPLC peak Area, RRT 1.00 ([1]; Initial): 96.41%
- water uptake (DVS) ([2]; 25° C./80% RH): 0.62%
- hygroscopicity ([2]; DVS, 25° C.): slightly hygroscopic
- Water uptake at 25° C./80% RH ([2]; DVS, 25° C./80% RH): 0.62 wt %
- For change after DVS ([2]; XRPD after DVS test): No
- form change after DVS test (XRPD) ([2]; after DVS test): no form change
- S: Solubility ([3]; FaSSIF, 1 hr): 24 µg/mL
- FC: Form change ([3]; FaSSIF, 1 hr): No
- S: Solubility ([3]; FaSSIF, 2 hrs): 21 µg/mL
- FC: Form change ([3]; FaSSIF, 2 hrs): No
- S: Solubility ([3]; FaSSIF, 4 hrs): 22 µg/mL
- FC: Form change ([3]; FaSSIF, 4 hrs): No
- S: Solubility ([3]; FaSSIF, 24 hrs): 29 µg/mL
- FC: Form change ([3]; FaSSIF, 24 hrs): Yes
- S: Solubility ([3]; FeSSIF, 1 hr): 38 µg/mL
- FC: Form change ([3]; FeSSIF, 1 hr): No
- S: Solubility ([3]; FeSSIF, 2 hrs): 35 µg/mL
- FC: Form change ([3]; FeSSIF, 2 hrs): No
- S: Solubility ([3]; FeSSIF, 4 hrs): 34 µg/mL
- FC: Form change ([3]; FeSSIF, 4 hrs): No
- S: Solubility ([3]; FeSSIF, 24 hrs): 21 µg/mL
- FC: Form change ([3]; FeSSIF, 24 hrs): Yes
- S: Solubility ([3]; H2O, 1 hr): 920 µg/mL
- FC: Form change ([3]; H2O, 1 hr): No
- S: Solubility ([3]; H2O, 2 hrs): 1700 µg/mL
- FC: Form change ([3]; H2O, 2 hrs): Yes
- S: Solubility ([3]; H2O, 4 hrs): 3800 µg/mL
- FC: Form change ([3]; H2O, 4 hrs): Yes
- S: Solubility ([3]; H2O, 24 hrs): 4900 µg/mL
- FC: Form change ([3]; H2O, 24 hrs): Yes
- S: Solubility ([3]; SGF, 1 hr): 280 µg/mL
- FC: Form change ([3]; SGF, 1 hr): Yes
- S: Solubility ([3]; SGF, 2 hrs): 69 µg/mL
- FC: Form change ([3]; SGF, 2 hrs): Yes
- S: Solubility ([3]; SGF, 4 hrs): 39 µg/mL
- FC: Form change ([3]; SGF, 4 hrs): Yes
- S: Solubility ([3]; SGF, 24 hrs): 50 µg/mL
- FC: Form change ([3]; SGF, 24 hrs): Yes
- form change of residual solids (XRPD) after solubility test ([3]; all the media (H2O, SGF, FaSSIF, FeSSIF), after 24 hrs): form change was observed
